Measured values as given in US4097599A, “Triazoles” (Commonwealth Scientific and Industrial Research Organization, priority 1973, dated 1978).
≈ marks a conversion by molar mass, not a printed value. Like-named read-outs stand apart in the source and are kept apart here.

Columns and labels:
yeast mitochondria = experiment: Oxidative phosphorylation in yeast mitochondria (uncoupling, State 3 respiration); type: biochemical, yeast (Saccharomyces cerevisiae)
Source text: (§1) Other biochemical tests carried out with the compounds were the measurement of their effects on the uncoupling of oxidative phosphorylation and the inhibition of energy transfer in the mitochondrial respiration sequences. In the light of a known report on the action of certain acaricides as monoamine oxidase (MAO) inhibitors, the new structures were also examined in this test, and their activity compared to the reported MAO inhibition shown by the potent acaricide N-(2,4-dimethylphenyl)-N'-methyl formamidine (BTS 27271).
Yeast mitochondria were prepared as described by Watson, K. et al.^4. The effects of anti-metabolites on oxidative phosphorylation were determined in a polarograph cell at 30° in the medium described by Haslam, J. M. et al.^5. Substrates were either succinate (4.0 mM) or ethanol (0.3M). Other additions, where indicated, were Sigma ADP and 2:4-dinitrophenol (DNP).
(§2) State 3 and state 4 respiration rates were determined by the method of Chance, B. et al.^9. Percentage uncoupling in the presence of antimetabolities was calculated from the equation [formula] Percentage inhibition of coupled respiration was calculated from the equation [formula] Relative uncoupling and n-octylguanidine like effects are compared as the concentrations required to give 50% effects (I50).

[1] = test system: oxidative phosphorylation in rat liver mitochondria; experiment: Oxidative phosphorylation in rat liver mitochondria (uncoupling, State 3 respiration); type: biochemical; settings: for EC50: concentration for 50% effect, read-out: Uncoupling activity of oxidative phosphorylation in rat liver mitochondria, I50
Source text: as §1
Rat liver mitochondria were prepared by the method described by Hogeboon^6 in a medium containing 0.25 M sucrose; 10 mM tris-HCl (pH 7.40); 0.5 mM EDTA and finally suspended in the same medium plus bovine-serum albumin (2 mg/ml). Oxidative phosphorylation was measured polarographically at 30°, as described by Estabrook, R. W. et al.^7. The incubation medium contained 0.25 M sucrose; 10 mM tris-HCl (pH 7.4); 5 mM K2 HPO4 (pH 7.4); 0.5 mM EDTA and bovine-serum albumin (2 mg/ml). DNP was added and control tests were carried out using n-octyl guanidine ^8 and either pyruvate or succinate as substrates.
as §2

[2] = test system: rat liver monoamine oxidase; experiment: Inhibition of rat liver monoamine oxidase; type: biochemical; settings: for Relative inhibition of rat liver monoamine oxidase: relative to I50 value of BTS 27271 = 100
Source text: as §1
Purified intact rat liver mitochondria were disrupted by treating with triton X-100 (1% w/v) for 20 mins. at 0°-4°. The MAO activity was measured spectrophotometrically at 360 nm as described by Weissbach, H. et al. ^10. The activity of BTS 27271 was determined by this method and the enzyme inhibition for other compounds was expressed relative to its I50 value.

[3] = test system: Boophilus microplus larvae; experiment: Acaricide testing: toxicity to Boophilus microplus larvae; type: in vivo, Boophilus microplus (cattle tick); settings: 7-14 day old larvae, packets, 24 hours
Method: (§3) The new compounds were examined in several biological tests. The acaricidal activity was measured against the larvae of the Australian cattle tick (Boophilus microplus). The specificity of interference of the designed compounds with mitochondrial oxidative processes was examined by the differential inhibition of growth of Saccharomyces cerevisiae with ethanol or glucose as substrates.
The determinations of mortalities were carried out in packets on 7-14 day old larvae of the cattle tick Boophilus microplus using the method described by Stone^1. Mortalities were counted 24 hours after the application of the compounds. The activities of DDT and BTS 27271 were also determined.

Saccharomyces cerevisiae = experiment: Inhibition of the growth of Saccharomyces cerevisiae on two substrates; type: cell-based, Saccharomyces cerevisiae strain L410; settings: 24 hours
Method: as §3
Saccharamyces cerevisiae, strain L410, was grown aerobically at 28° in a salts medium containing 1% Difco yeast extract and 0.5% bacteriological peptone as described by Wallace, P. G. et al.^2 with either ethanol (1% w/v) or glucose (5% w/v) as carbon and energy sources. Cells were innoculated at a concentration of 10 μg of dry weight per ml and grown for 24 hours. Growth was measured as described by Clark-Walker et al.^3, and compared with control incubations.

Tetranychus urticae = experiment: Activity against the two-spotted spider mite on discs of dwarf bean leaf; type: in vivo; settings: read-out: LC50, Tetranychus urticae
Method: Compounds of the invention were tested for their activity against the two-spotted spider mite, Tetranychus urticae. In this test, discs of dwarf bean leaf were treated with varying known amounts of the test compound. On each disc, 15 mites were placed and the sample kept under cover. Mortalities were determined after 24 hours and compared with […] controls.

[4] = ethanol substrate, read-out: Inhibition of the growth of Saccharomyces cerevisiae, ethanol, I50
[5] = glucose substrate, read-out: Inhibition of the growth of Saccharomyces cerevisiae, glucose, I50

Structure (SMILES) | Relative inhibition of rat liver monoamine oxidase [2] | LC50, toxicity to Boophilus microplus larvae [3] | IC50 (Saccharomyces cerevisiae; [4]) | further results
FC(F)(F)c1n[nH]c(-c2ccccc2)n1 [20(c), 3(5)-phenyl-5(3)-trifluoromethyl-1,2,4-triazole] | 0 | 0.60% | 300 µM | Uncoupling activity in yeast mitochondrial preparations (result in words) (yeast mitochondria): high uncoupling activity; EC50 [1]: 80 µM; Uncoupling activity in rat liver mitochondrial preparations (result in words) [1]: high uncoupling activity; IC50 (Saccharomyces cerevisiae; [5]): 1000 µM
FC(F)(F)c1n[nH]c(-c2ccc(Cl)cc2)n1 [20(d), 3(5)-(4-chlorophenyl)-5(3)-trifluoromethyl-1,2,4-triazole] | 27 | 0.45% | 30 µM | Uncoupling activity in yeast mitochondrial preparations (result in words) (yeast mitochondria): high uncoupling activity; EC50 [1]: 12 µM; Uncoupling activity in rat liver mitochondrial preparations (result in words) [1]: high uncoupling activity; Inhibition of rat liver monoamine oxidase (result in words) [2]: potent inhibition; IC50 (Saccharomyces cerevisiae; [5]): 300 µM
FC(F)(F)c1n[nH]c(-c2ccc(Cl)c(Cl)c2)n1 [20(e), 3(5)-(3,4-dichlorophenyl)-5(3)-trifluoromethyl-1,2,4-triazole] | 42 | 0.38% | 10 µM | Uncoupling activity in yeast mitochondrial preparations (result in words) (yeast mitochondria): high uncoupling activity; EC50 [1]: 2.3 µM; Uncoupling activity in rat liver mitochondrial preparations (result in words) [1]: high uncoupling activity; Inhibition of rat liver monoamine oxidase (result in words) [2]: potent inhibition; IC50 (Saccharomyces cerevisiae; [5]): 300 µM
CN=CNc1ccc(C)cc1C [BTS 27271, N-(2,4-dimethylphenyl)-N'-methyl formamidine, reference compound] | 100 | 0.2% |  | 
Clc1ccc(C(c2ccc(Cl)cc2)C(Cl)(Cl)Cl)cc1 [DDT, reference compound] |  | 0.78% |  | LC50 (Tetranychus urticae; 24 h): > 20000 µg/mL
FC(F)(F)c1nncn1-c1ccccc1 [Example 1, 4-Phenyl-3-trifluoromethyl-1,2,4-triazole] | 0 | 0.62% | 2500 µM | 
FC(F)(F)c1nncn1-c1ccc(Cl)cc1 [Example 3, 4-(4-chlorophenyl)-3-trifluoromethyl-1,2,4-triazole] | 2 | 0.60% | 2500 µM | 
Cc1ccccc1-n1cnnc1C(F)(F)F [Example 4, 4-(2-methylphenyl)-3-trifluoromethyl-1,2,4-triazole] | 2.5 | 0.52% |  | 
CC(C)(C)c1ccccc1-n1cnnc1C(F)(F)F [Example 5, 4-(2-t-butylphenyl)-3-trifluoromethyl-1,2,4-triazole] | 0 | 2.16% | 100 µM | IC50 (yeast mitochondria; yeast mitochondria, read-out: Half-maximal effect on State 3 respiration by yeast mitochondria): 160 µM
COc1ccccc1-n1cnnc1C(F)(F)F [Example 6, 4-(2-methoxyphenyl)-3-trifluoromethyl-1,2,4-triazole] | 5 | 0.38% |  | 
CCOc1ccc(-n2cnnc2C(F)(F)F)cc1 [Example 7, 4-(4-ethoxyphenyl)-3trifluoromethyl-1,2,4-triazole] | 2.5 | 0.61% |  | LC50 (Tetranychus urticae; discs of dwarf bean leaf, 24 hours): 1400 µg/mL (≈ 5.44 mM)
CC(C)(C)c1ccc(-n2cnnc2C(F)(F)F)cc1 [Example 8, 4-(4-t-butylphenyl)-3-trifluoromethyl-1,2,4-triazole] | 1 | 1.8% |  | 
Cc1ccc(-n2cnnc2C(F)(F)F)c(C)c1 [Example 9, 4-(2,4-Dimethylphenyl)-3-trifluoromethyl-1,2,4-triazole] |  | 1.55% |  | 
Cc1cc(Cl)ccc1-n1cnnc1C(F)(F)F [Example 10, 4-(4-Chloro-2-methylphenyl)-3-trifluoromethyl-1,2,4-triazole] |  | 0.87% |  | 
Cc1nnc(C(F)(F)F)n1-c1ccccc1 [Example 11, 3-Methyl-4-phenyl-5-trifluoromethyl-1,2,4-triazole] | 2 | 0.50% |  | 
FC(F)(F)c1nnc(-c2ccc(Cl)cc2)n1-c1ccc(Cl)cc1 [Example 12, 3,4-bis(4-chlorophenyl)-5-trifluoromethyl-1,2,4-triazole] | 200 | > 1% |  | Inhibition of rat liver monoamine oxidase (result in words) [2]: potent inhibition
FC(F)(F)c1ncn(-c2ccccc2)n1 [Example 13, 1-phenyl-3-trifluoromethyl-1,2,4-triazole] | 400 | 2.75% |  | Inhibition of rat liver monoamine oxidase (result in words) [2]: potent inhibition; Inhibition of rat liver monoamine oxidase compared with BTS 27271 ([2]; times that determined for BTS 27271 in a similar test): four times
FC(F)(F)c1nc[nH]n1 [Example 16, 3-trifluoromethyl-1,2,4-triazole] | 0 | 0.50% |  | 
